Results published in patent US20260137711A1, “COMBINATION THERAPY FOR CANCER” (NATIONAL UNIVERSITY OF IRELAND, GALWAY, priority 2022, published 2026).
Entries after “also recorded” stand apart in the source; their conditions may differ.

System: MCF10A cells
Assay: Flow cytometry of cell cycle distribution and DNA synthesis (EdU/DAPI)
Format: cell-based, human
Conditions: for cell cycle distribution: 24 hours
Protocol: (c) A typical profile obtained by flow cytometry of MCF10A cells labelled with EdU and DAPI that indicates the gating applied in order to determine the percentage of cells with sub-G1 DNA content (sub-G1), G1 cells (G1), replicating early-mid S phase cells (Early-Mid S/EdU+), replicating mid-late S phase cells (Mid-Late S/EdU+), cells with S phase DNA content but not replicating (2n<& <4n/EdU−), and cells either in G2 or mitosis (G2/M).(d-f) MCF10A cells were mock treated or treated with 10 μM XL413, in the presence or absence of increasing concentrations of the CDK8 inhibitor BI-1347, for 24 hours. (d) Cells were labelled with EdU for last 30 minutes and DNA synthesis, DNA content and cell cycle distribution were assessed by flow cytometry and analysed using the gating strategy described in above (FIG. 2c). (e) Distribution of cells in the cell cycle. (f) Fluorescence intensity, proportional to EdU incorporation, in individual S phase cells. Long and short horizontal black lines indicate the median and the interquartile range, respectively, extending from the 25th to the 75th percentile for ˜3,810 cells for each condition. Data is from a single experiment.
FIG. 3: CDK8 activity is required for efficient DNA synthesis under conditions of limited CDC7 kinase activity (a-c) MCF10A cells were mock treated or treated with 31 nM BI-1347, in the presence or absence of increasing concentrations of the CDC7 inhibitors, XL413 (a-c) and TAK-931 (d-f), for 24 hours. (a and d) Cells were labelled with EdU for last 30 minutes and DNA synthesis, DNA content and cell cycle distribution were assessed by flow cytometry and analysed using the gating strategy described in FIG. 2c.c (b and e) distribution of cells in the cell cycle. (c and f) Fluorescence intensity, proportional to EdU incorporation, in individual S phase cells. Long and short horizontal black lines indicate the median and the interquartile range, respectively, extending from the 25th to the 75th percentile for ˜4,190 cells for each condition. Data is from a single experiment.
To analyse the cell cycle and DNA synthesis, nascent DNA was labelled by incubating cells with 10 μM EdU for either 20 or 30 minutes prior to harvest, washing with PBS, and then by resuspension in PBS containing 70% EtOH for 1 hour at −20° C. After a PBS wash, incorporated EdU was labelled by incubating cells in click reaction buffer (PBS containing 10 μM 6-Carboxyfluorescine-TEG-azide, 10 mM Sodium-L-ascorbate, 2 mM Copper-II-Sulphate) for 30 minutes protected from light. Cells were washed in PBS containing 1% BSA, 5% Tween 20 and then DNA stained in PBS containing 1% BSA and 1 μg/ml DAPI. All washes involve: centrifugation at 400×g for 5 minutes, removal of supernatant from pellet, resuspension in the appropriate buffer, recentrifugation and removal of supernatant from the pellet prior to the next step.
Fluorescence intensity data for 6-Carboxyfluorescine (488_530_30 nm) and DAPI (405_450_50 nm) were acquired for 10,000 single cells on a BD FACS Canto II and analysed using FlowJo software. To further analyse fluorescence intensity, proportional to EdU incorporation, for individual cells, gates were applied on DAPI-EdU biparametric dot plots to select for EdU positive S phase cells using FlowJo. According to the required analysis these gates included either all S phase cells, or only early or late S phase cells. Fluorescence intensity (488_530_30) values per cell were exported and plotted as scatter dot plots using GraphPad prism. For comparisons of mean fluorescence intensity of a cell population across three biological repeat experiments, all fluorescence intensity values were normalised to the maximum fluorescence intensity of the untreated control sample of each respective experiment to account for absolute differences in EdU staining. […]

In the case of `Cl.O=c1[nH]c([C@@H]2CCCN2)nc2c1oc1ccc(Cl)cc12` [XL413], the “rate of DNA synthesis” value was “strongly reduced; also recorded: much more profound decrease”, the “rate of DNA synthesis of S phase cells” value was “corresponding decrease” and the cell cycle distribution (10 μM XL413 alone) was “accumulation of cells in mid to late S phase”. For the same molecule, the cell cycle distribution (CDC7 inhibitor alone at increasing concentrations, absence of CDK8/CDK19i) was “dose-dependent accumulation of mid-late S phase cells” and the cell cycle distribution (CDC7 inhibitor at increasing concentrations together with the CDK8/CDK19 inhibitor (31 nM BI-1347), all doses tested) was “more pronounced accumulation of cells in mid-late S phase”.
